Counter-ions that a name gives are not always drawn.

The target in the assay is T1, DltA enzyme (Streptococcus agalactiae serotype III, UniProt Q8VM67).
T1 construct: His-tag (from pET100 vector) (N); made in house; host or cells: E. coli BL21 (DE3) Star
T1 sequence (Q8VM67 1-511): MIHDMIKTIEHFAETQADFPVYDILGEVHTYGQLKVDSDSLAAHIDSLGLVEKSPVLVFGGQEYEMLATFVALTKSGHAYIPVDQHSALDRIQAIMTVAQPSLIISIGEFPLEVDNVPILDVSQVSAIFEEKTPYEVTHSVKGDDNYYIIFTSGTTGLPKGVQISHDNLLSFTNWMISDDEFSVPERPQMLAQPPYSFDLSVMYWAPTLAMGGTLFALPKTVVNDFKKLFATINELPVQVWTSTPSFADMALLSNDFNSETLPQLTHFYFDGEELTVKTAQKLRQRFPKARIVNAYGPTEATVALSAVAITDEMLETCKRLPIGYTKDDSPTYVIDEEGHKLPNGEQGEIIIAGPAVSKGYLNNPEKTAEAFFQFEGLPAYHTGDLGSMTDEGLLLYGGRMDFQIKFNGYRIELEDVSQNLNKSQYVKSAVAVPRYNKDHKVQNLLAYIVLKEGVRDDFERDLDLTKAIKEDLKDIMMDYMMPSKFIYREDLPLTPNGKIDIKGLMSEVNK
Kind of assay: DltA HTS assays (luminescent / fluorescent), inhibition of DltA enzymatic activity in vitro. The following applies: Table 1; DltA inhibition, HTS assays of method 1; read-out: IC50. It is filed as biochemical, S. agalactiae. An excerpt: The compounds effect on DltA enzyme has been based on the measure of the inhibition of DltA activity in vitro.
To this end, a recombinant protein Dlta was expressed and purified after cloning of the gene of S. agalatiae as described below:
Methods 1: DltA HTS Assays
The assay described below makes use of dithiothreitol (DTT) instead of DltC as reactive thiol in the catalyzed reaction. In fact, the inventors have shown that DTT, but also Coenzyme A and N-Acetylcysteamine are all thiols able to replace efficiently DltC. In addition, contrary to the prior art, radioactivity is not used: all the assays are based either on luminescent ATP detection, or on fluorescent AMP detection. They are easily amenable to miniaturized formats and fast readouts as required by HTS.
The assay buffer “AB” contains 50 mM Hepes pH8.0, 10 mM MgCl2, 50 mM KCl, 0.012% Triton-X100. The following components are added in a white polystyrene Costar plate up to a final volume of 30 μL: 3 μL DMSO, or inhibitor dissolved in DMSO and 27 μL DltA enzyme and DTT in AB. After 30 min of pre-incubation at room temperature, 30 μL of Substrates mix in AB are added in each well to a final volume of 60 μL. This reaction mixture is then composed of 10 nM DltA (produced in house from S. agalactiae), 0.5 mM D-Alanine (Sigma), 0.5 μM ATP (Sigma) and 1 mM DTT (Biochemika) in assay buffer. After 90 min of incubation at room temperature, 30 μL of the revelation mix are added to a final volume of 90 μL, including the following constituents at the respective final concentrations: 2 nM luciferase (Sigma), 30 μM D-luciferin (Sigma), 100 μM N-acetylcysteamine (Aldrich). Luminescence intensity is immediately measured on an Analyst-HT (Molecular Devices) and converted into inhibition percentages. For IC50 (Inhibitory Concentration 50%) determinations, the inhibitor is added at 6 to 10 different concentrations, and the related inhibitions are fitted to a classical langmuir equilibrium model using XLFIT (IDBS).
The assay buffer “AB” contains 50 mM Hepes pH8.0, 10 mM MgCl2, 50 mM KCl, 0.012% Triton-X100. The following components are added in a black polystyrene Costar plate up to a final volume of 50 μL: 5 μL DMSO, or inhibitor dissolved in DMSO and 45 μL DltA enzyme and DTT in AB. After 30 min of pre-incubation at room temperature, 50 μL of Substrates-revelation mix in AB are added in each well to a final volume of 100 μL. This reaction mixture is then composed of 5 nM DltA (produced in house from S. agalactiae), 0.5 mM D-Alanine (Sigma), 10 μM ATP (Sigma), 1 mM DTT (Biochemika), 10 nM Adenylate kinase (produced in house), 5 u/mL Pyruvate Kinase (Sigma), 50 μM phosphoenolpyruvate (Sigma), 5 u/mL Lactate deshydrogenase (Sigma) and 3 μM NADH (Sigma) in assay buffer. Fluorescence intensity of NADH (λex=360 nm, λem=520 nm) is immediately measured kinetically by a Fluostar Optima (BMG). Inhibition percentages are derived from fitted initial velocities. For IC50 determinations, the inhibitor is added at 6 to 10 different concentrations, and the related inhibitions are fitted to a classical langmuir equilibrium model using XLFIT (IDBS). FIG. 2 represents the data obtained using this method.
The capacity of compounds to inhibit DltA enzymatic activity was assessed using the DltA HTS assays described in method 1.
As a reminder, the IC50 is the concentration that gives 50% inhibition. For the compound `O=C(O)c1cc(-c2cnc3c(NCCCO)nc4cc(C(F)(F)F)ccc4n23)[nH]n1` [Example 48, 5-{4-[(3-hydroxypropyl)amino]-7-(trifluoromethyl)imidazo[1,2-a]quinoxalin-1-yl}-1H-pyrazole-3-carboxylic acid], the IC50 was 5000 nM.
`O=P(O)(O)OCCCNc1nc2cc(C(F)(F)F)ccc2n2c(-c3ccn[nH]3)cnc12` [Example 58, Phosphoric acid mono-{3-[1-(2H-pyrazol-3-yl)-7-trifluoromethyl-imidazo[1,2-a]quinoxalin-4-ylamino]-propyl}ester, disodium salt]: the IC50 stood at 19000 nM.
Turning to `OCCCNc1nc2cc(C(F)(F)F)ccc2n2c(-c3cc(-c4cccnc4)n[nH]3)cnc12` [Example 33, 3-({1-[3-(3-pyridinyl)-1H-pyrazol-5-yl]-7-(trifluoromethyl)imidazo[1,2-a]quinoxalin-4-yl}amino)propan-1-ol], the IC50 was found to be 25 nM.
In the case of `NCc1ccc(-c2cnc3c(NCCCO)nc4cc(C(F)(F)F)ccc4n23)cc1` [Example 18, 3-({1-[4-(aminomethyl)phenyl]-7-(trifluoromethyl)imidazo[1,2-a]quinoxalin-4-yl}amino)propan-1-ol] it was 240 nM.
As to `OCCCNc1nc2cc(-c3ccccc3C(F)(F)F)ccc2n2c(-c3ccn[nH]3)cnc12` [Example 54, 3-{[1-(1H-pyrazol-5-yl)-7-(2-[trifluoromethyl]phenyl)imidazo[1,2-a]quinoxalin-4-yl]amino}propan-1-ol], the IC50 came out at 22 nM.
With `NS(=O)(=O)c1cccc(-c2cnc3c(NCCCO)nc4cc(C(F)(F)F)ccc4n23)c1` [Example 9, 3-{4-[(3-hydroxypropyl)amino]-7-(trifluoromethyl)imidazo[1,2-a]quinoxalin-1-yl}benzenesulfonamide], the IC50 came to 690 nM.
In the case of `COc1ccc(-c2cnc3c(NCCCO)nc4cc(C(F)(F)F)ccc4n23)cc1` [Example 10, 3-{[1-(4-methoxyphenyl)-7-(trifluoromethyl)imidazo[1,2-a]quinoxalin-4-yl]amino}propan-1-ol], the IC50 amounted to 230 nM.
In the case of `CNC(=O)NCc1cnc2c(NCCCO)nc3cc(C(F)(F)F)ccc3n12` [Example 43, 1-({4-[(3-hydroxypropyl)amino]-7-(trifluoromethyl)imidazo[1,2-a]quinoxalin-1-yl}methyl)-3-methylurea], the IC50 is 1200 nM.
Take `CS(=O)(=O)Nc1ccc(-c2cnc3c(NCCCO)nc4cc(C(F)(F)F)ccc4n23)cc1` [Example 12, N-{4-[4-(3-Hydroxy-propylamino)-7-trifluoromethyl-imidazo[1,2-a]quinoxalin-1-yl]-phenyl}-methanesulfonamide]: the IC50 came to 87 nM.
The figure for `OCCCNc1nc2cc(OC(F)(F)F)ccc2n2ccnc12` [Example 7, 3-{[7-(trifluoromethoxy)imidazo[1,2-a]quinoxalin-4-yl]amino}propan-1-ol] is 2200 nM; for `OCCCNc1nc2cc(C(F)(F)F)ccc2n2c(-c3cc(-c4ccccc4)n[nH]3)cnc12` [Example 32, 3-({1-[3-phenyl-1H-pyrazol-5-yl]-7-(trifluoromethyl)imidazo[1,2-a]quinoxalin-4-yl}amino)propan-1-ol] it is 42 nM; for `Cc1n[nH]c(-c2cnc3c(NCCCO)nc4cc(OC(F)(F)F)ccc4n23)n1` [Example 55] it is 25 nM.
In the case of `CNC(=O)c1ccc(-c2cnc3c(NCCCO)nc4cc(C(F)(F)F)ccc4n23)cc1` [Example 15, 4-{4-[(3-hydroxypropyl)amino]-7-(trifluoromethyl)imidazo[1,2-a]quinoxalin-1-yl}-N-methylbenzamide] it was 200 nM; in that of `CC(=O)Nc1cccc(-c2cnc3c(NCCCO)nc4cc(C(F)(F)F)ccc4n23)c1` [Example 8, N-{3-[4-(3-Hydroxy-propylamino)-7-trifluoromethyl-imidazo[1,2-a]quinoxalin-1-yl]-phenyl}-acetamide], 120 nM.

(Values after patent publication US8513250B2 (Laboratoire Biodim, priority 2007, dated 2013).)
